# Results from the METLIN SMRT retention time set (Domingo-Almenara et al. 2019).
# Experiment: gradient 5% acetonitrile 3 min, to 50% in 2 min, to 85% in 15 min, held 3 min, 100 µL/min
# Conditions: column: Zorbax Extend-C18 2.1 x 50 mm; eluents: water / acetonitrile, 0.1% formic acid
# Method in brief: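 Over 3 months, pure standards in mixtures of ~100 molecules were run by HPLC coupled to a quadrupole time-of-flight mass spectrometer in positive and negative ionization mode. The column was a Zorbax Extend-C18 (2.1 × 50 mm, 1.8 μm) at 100 μL/min, eluted with water and acetonitrile each holding 0.1% formic acid, with 40 μL dead and 900 μL dwell volumes. Retention time was determined from adduct peaks chosen by software and checked manually.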
row,Compound,RP-LC retention time
1,Cc1sc(NC(=O)C(C)C)nc1-c1ccc2c(c1)NC(=O)C(C)O2 (stereo not drawn),831 s
2,Cc1ccc(Sc2nccnc2N2CCC(C(=O)Nc3cccc(Br)c3)CC2)cc1,1260 s
3,Clc1ccc(-c2nc(NC3CCCCC3)c3ccccc3n2)cc1,924 s
4,CCOC(=O)Cc1nnc(-c2ccc(Br)cc2)o1,903 s
5,COc1cccc2cc(-c3nnc(NC(=O)c4ccc5ncsc5c4)o3)oc12,725 s
6,O=C(c1cccc(F)c1)N1CCC[C@H]1c1nc(-c2ccccc2)n[nH]1,685 s
7,O=C(Cc1nnc(-c2cnccn2)o1)Nc1cccc(C(F)(F)F)c1,780 s
8,CCC1CN(C(=O)Nc2cccc(C(=O)OC)c2)c2ccccc2O1 (stereo not drawn),1020 s
9,Cc1ccc(N2CC(c3nc(-c4ccccc4F)no3)CC2=O)cc1C (stereo not drawn),1020 s
10,CCOc1cccc(-c2noc(CN3C(=O)COc4ccccc43)n2)c1,1050 s
11,CCc1ccc(NC(=O)C2CCCN(c3nc4c(s3)c(C)nn4-c3ccc(OC)cc3)C2)cc1 (stereo not drawn),1360 s
12,Cc1ccc(Cl)cc1N(C)C(=O)Cn1cnc2nc3c(cc2c1=O)CCCC3,809 s
13,O=C1CCCc2c1cc(C(=O)N1CCOCC1)c(=O)n2-c1ccc(C(F)(F)F)cc1,723 s
14,CCOC(=O)c1noc2ncnc(Nc3cc(C)cc(C)c3)c12,1060 s
15,O=C(c1ccc(-c2cccnc2)nc1)N1CCN(c2ccccc2F)CC1,688 s
16,CC1CS(=O)(=O)N(c2ccc(S(=O)(=O)N3CCC(C(N)=O)CC3)cc2)C1=O (stereo not drawn),640 s
17,O=C1CC(c2cc(Br)ccc2F)c2scc(S(=O)(=O)c3ccccc3)c2N1 (stereo not drawn),1010 s
18,COc1cc2c(cc1OC)[C@@H](C(=O)Nc1ccc(F)cc1)[C@@H]1CCCCN1C2=O,773 s
19,O=C(NCCn1cnc(-c2ccccc2)cc1=O)c1ccc2nsnc2c1,659 s
20,Cc1oc2ccn(Cc3cccc(F)c3)c(=O)c2c1C(=O)NC1CCCC1,1060 s
21,Cc1cccc(CNc2nnc(-c3nnc(C)o3)c3ccccc23)c1,831 s
22,O=C(NCc1ccccc1)N1CCC(OCc2nc(C3CC3)no2)CC1,776 s

row,Compound,RP-LC retention time
1,CN1C(=O)c2cccnc2Sc2cc(NC(=O)c3ccccc3Br)ccc21,785 s
2,CC1CCN(c2ncc3c(n2)CCC(C(=O)NCc2ccc(N4CCOCC4)cc2)C3)CC1 (stereo not drawn),715 s
3,Cc1ccc(NS(=O)(=O)c2cc(-c3cc(C(F)(F)F)on3)cs2)c(Br)c1,1160 s
4,CCCCN1C(=O)CN(S(=O)(=O)c2ccc(C)cc2)CC1(C)C(=O)NCc1ccccc1 (stereo not drawn),974 s
5,COc1ccccc1NC(=O)Cn1nc2cc(C)nc(-c3ccccc3)n2c1=O,819 s
6,COc1ccc2[nH]cc(CCNC(=O)Cn3nc(C)c4nn(-c5ccccc5)c(C)c4c3=O)c2c1,817 s
7,CCc1ccc(NC(=O)c2c(C)sc3ncnc(N4CCCC4)c23)cc1,975 s
8,Cc1nc2cc(N3CCC(C(=O)NCc4cccs4)CC3)cnc2nc1C,670 s
9,CCOC(=O)c1[nH]c(C)c(CCC(=O)NC(C)C(=O)N2CCCCC2)c1C (stereo not drawn),570 s
10,CCn1cc(CC(=O)NCc2ccc(OC)cc2)c2cccnc21,716 s
11,Cc1nc(-c2ccccc2)sc1C(=O)NCCNC(=O)c1ccc(NC(=O)C2CC2)cc1,705 s
12,Cc1cc(C)cc(N2CCC(NC(=O)Nc3ccccc3C)C2=O)c1 (stereo not drawn),890 s
13,COCCCNC(=O)c1c(OCC(C)C)cc(=O)n2c1CCCCC2,638 s
14,C/C(=C\c1csc(C)n1)C1C[C@@H]2O[C@@H]2CCC[C@H](C)[C@H](O)[C@@H](C)C(=O)C(C)(C)[C@@H](O)CC(=O)O1 (stereo partly drawn),874 s
15,CSc1ccc(-c2nc3ccc(Cl)cn3c2Nc2ccc(C)cc2)cc1,954 s
16,CC1=C(c2ccccc2)S(=O)(=O)N=C1N1CCCN(C(=O)c2cccc(F)c2)CC1,847 s
17,CCOc1ccc(S(=O)(=O)N2CCCC2C(=O)Nc2nccs2)cc1 (stereo not drawn),818 s
18,O=C(CCS(=O)(=O)c1ccccc1)Nc1cc(-c2ccco2)nn1CCO,643 s
19,CCCNC(=O)CN1C(=O)C2CCCCN2c2ccc(S(=O)(=O)N3CCCC3)cc21 (stereo not drawn),800 s
20,Cc1ccn2cc(-c3ccc(NS(=O)(=O)c4ccccc4Cl)cc3)nc2n1,642 s
21,COc1ccc(NC(=O)NCCCn2c(C(F)(F)F)nc3cccnc32)c(OC)c1,708 s
22,CCCNC(=O)CSc1cn(CC(=O)N2CC(C)OC(C)C2)c2ccccc12 (stereo not drawn),745 s

row,Compound,RP-LC retention time
1,CCc1noc(-c2cnc3nc(C)ccc3c2NC(C)c2ccc(F)cc2)n1 (stereo not drawn),798 s
2,Cc1noc(C)c1S(=O)(=O)N1CC(c2nc(Cc3cccnc3)no2)C1,588 s
3,CCc1csc(-c2ccc(N3CCN(C(=O)Cc4ccc(F)cc4)CC3)nc2)n1,925 s
4,COc1ccc(CC(=O)NCC2(c3cccs3)CC2)cc1OC,736 s
5,COc1cc(OC)c(NC(=O)N2CCC(n3cnc4cccnc43)CC2)cc1Cl,670 s
6,CNC(=O)c1cc2c(=O)n(CC(C)C)c3ccccc3n2n1,793 s
7,CCOc1nc2ccccc2nc1N1CCCC(C(=O)N2CCN(c3ccccc3F)CC2)C1 (stereo not drawn),1330 s
8,CN(CC(=O)NC1CCCCC1)S(=O)(=O)c1c[nH]c(C(=O)N2CCCC2)c1,722 s
9,COc1cccc(N2CC(C(=O)Nc3nnc4n3CCS4)CC2=O)c1 (stereo not drawn),586 s
10,COc1cccc(-c2nnc(Cc3nc(-c4cccc(OC)c4OC)no3)o2)c1,923 s
11,O=C(NCc1ccc(F)cc1)N1CCC(Nc2cccnc2)C1 (stereo not drawn),591 s
12,Cc1noc(-c2ccc(OC3CN(C(=O)c4ccoc4)C3)cc2)n1,781 s
13,CCc1ccc(C2=C(C)C(N3CCC(NC(=O)C(C)(C)CC)CC3)=NS2(=O)=O)cc1,965 s
14,Cn1nnnc1SCC(=O)NCCn1nc(-c2ccco2)ccc1=O,592 s
15,CCN(CC)C(=O)c1cnc2nc(C)ccc2c1Nc1ccc(CC(=O)O)cc1,1020 s
16,CN1CCN(C(=O)c2cc3c(s2)CCN(C(=O)c2ccc(Cl)cc2)C3)CC1,627 s
17,CCCN1C(=O)COc2ccc(-c3csc(NC(=O)c4ccc(OC)c(OC)c4)n3)cc21,971 s
18,CN1C(=O)c2cc(S(=O)(=O)NC3CCCCC3)ccc2Oc2cccnc21,929 s
19,Cc1cccc(C)c1-n1nnc(C(=O)NCC2CCCO2)c1C (stereo not drawn),754 s
20,Cn1c(=O)c2cc(C(=O)Nc3ccc4c(c3)OCO4)cnc2n(-c2ccc(F)cc2)c1=O,850 s
21,O=C1CC(c2noc(-c3cc(F)ccc3Cl)n2)CN1c1ccc(F)cc1 (stereo not drawn),1020 s
22,CCOc1ccc2nc(C(=O)NCc3ccc(C(F)(F)F)cc3)cn2n1,947 s

row,Compound,RP-LC retention time
1,O=C(NCCCN1CCN(c2ccc(F)cc2)CC1)C1CCCN(c2nc3cccnc3s2)C1 (stereo not drawn),645 s
2,O=C(Nc1ccc2ncnc(N3CCCCC3)c2c1)c1ccc(Br)o1,704 s
3,Cc1nc(-c2csc(S(=O)(=O)N3CCC(C(=O)NCc4cccnc4)CC3)c2)no1,618 s
4,CCOc1ccc(-n2ccn3c(CC(C)CC(=O)NCC(C)C)nnc3c2=O)cc1 (stereo not drawn),683 s
5,CCN1CCCn2cc(S(=O)(=O)NCc3ccccc3Cl)cc2C1=O,750 s
6,COc1ccc(-n2nc3c(N4CCCC(C(=O)NCCC5=CCCCC5)C4)nnc(C)c3c2C)cc1 (stereo not drawn),814 s
7,O=C(NCC(F)(F)F)C(=O)NCC1(c2cccs2)CCCCC1,804 s
8,CC(C)Cc1ccc([C@@H](C)C(=O)NS(C)(=O)=O)cc1,1070 s
9,Nc1cc(C2CCN(S(=O)(=O)c3cccc(Br)c3)CC2)no1,824 s
10,Cc1ccc(NC(=O)Cn2c(=O)cc(-c3nc(C(C)C)no3)c3ccccc32)cc1F,1080 s
11,Cc1nc(-c2cc(S(=O)(=O)Nc3ccc(Br)cc3C)c(C)s2)cs1,1100 s
12,COc1ccc(-c2ccnc3nc(C4CCC4)nn23)c(F)c1,869 s
13,CCc1ccccc1NC(=O)N1CCCC1c1nc(-c2ccc(F)cc2F)no1 (stereo not drawn),987 s
14,CNC(=O)c1ccc(-c2nc3cc(NS(=O)(=O)c4cc(F)ccc4F)ccc3n2C)cc1,637 s
15,CCn1cc(C)c(C(=O)O)c1CC(=O)NCc1cccnc1,584 s
16,Cc1ccc(-c2nnc(-c3nn(C)c4c3CN(S(=O)(=O)Cc3ccccc3Cl)CC4)o2)cc1,1020 s
17,O=C(c1cn(-c2cc(N3CCSCC3)ncn2)cn1)N1CCN(c2ccccc2)CC1,877 s
18,O=C(Cn1nc2n(c1=O)CCCCC2)Nc1ccccc1C(F)(F)F,713 s
19,O=c1n(Cc2cccc(C(F)(F)F)c2)nc2c(S(=O)(=O)N3CCOCC3)cccn12,847 s
20,Cc1nn(Cc2nc(-c3ccc(NC(=O)c4cccs4)cc3)oc2C)c(C)c1C,922 s
21,COc1ncccc1C(=O)N1CCC(C(=O)Nc2nccs2)CC1,605 s
22,CCCNC(=O)N1CCN(c2nc3c(s2)CN(C(=O)CC)CC3)CC1,602 s
